Test results reported in paper PMC8111447 (Frontiers in Pharmacology, 2021).

What was measured:
[1] = test system: H3255 (EGFR^L858R); assay: Cell proliferation assay (CTG, 72 h); assay type: cell-based, human; conditions: for IC50: Homo sapiens, NCI-H3255, H3255 cells, 72 h, mean ± SD, n = 3
Protocol: (§1) Human lung cancer cell lines (NCI-H1975, H3255 and A431) were obtained from the American Type Culture Collection (ATCC), while PC-9 cell line was supplied by the European Collection of Authenticated Cell Cultures (ECACC). For in vivo implantation, NCI-H1975, H3255 and PC-9 cells were cultured in RPMI1640 (Invitrogen) supplemented with 10% v/v fetal calf serum (Sigma-Aldrich) and 2 mmol/L L-glutamine (Invitrogen). A431 cells were cultured in DMEM (Invitrogen) supplemented with 10% v/v fetal calf serum and 2 mmol/L v/v L-glutamine. All cell lines were then cultured in a humidified incubator with 5% CO2 at 37°C.
(§2) Test compounds were dissolved in DMSO as a 10 mmol/L stock solution. The initial concentration of compounds were 10 μmol/L and the 3-fold dilution was nine times. […] Plate was shaked for 2 min and the mixture was incubated at room temperature for 10 min.
(§3) The half-maximal inhibition concentration (IC50) values were processed by GraphPad Prism7 (GraphPad Software; La Jolla, CA).

[2] = test system: PC-9 (EGFR^d746–750); assay: Cell proliferation assay (CTG, 72 h); assay type: cell-based, human; conditions: for IC50: Homo sapiens, PC-9 cells, 72 h, mean ± SD, n = 3
Protocol: as §1, §2, §3

[3] = test system: A431 (EGFR^WT); assay: Cell proliferation assay (CTG, 72 h); assay type: cell-based; conditions: Homo sapiens, A-431, A431 cells, mean ± SD, n = 3
Protocol: as §1, §2, §3

[4] = test system: NCI-H1975 (EGFR^L858R/T790M); assay: Cell proliferation assay (CTG, 72 h); assay type: cell-based; conditions: Homo sapiens, NCI-H1975 cells, mean ± SD, n = 3
Protocol: as §1, §2, §3

[5] = biological target: T1, LRRK2(h) (Homo sapiens, UniProt Q5S007); assay: Kinase panel (Eurofins); assay type: biochemical; conditions: n = 2; for inhibition at 1 µM: at 1 μmol/L; for IC50: read-out: IC50 kinase inhibition
T1 construct: purchased Eurofins
Text: (§4) These receptors have a methionine gatekeeper in their kinase domains, and are related to hyperglycemia in other clinical trials of EGFR TKI, such as Co-1686.

[6] = biological target: T2, PTK5(h) (Homo sapiens, UniProt P42685); assay: Kinase panel (Eurofins); assay type: biochemical; conditions: n = 2; for inhibition at 1 µM: at 1 μmol/L; for IC50: read-out: IC50 kinase inhibition
T2 construct: purchased Eurofins
Text: as §4

[7] = biological target: T3, Fer(h) (Homo sapiens, UniProt P16591); assay: Kinase panel (Eurofins); assay type: biochemical; conditions: n = 2; for inhibition at 1 µM: at 1 μmol/L; for IC50: read-out: IC50 kinase inhibition
T3 construct: purchased Eurofins
Text: as §4

[8] = biological target: T4, ACK1(h) (Homo sapiens, UniProt Q07912); assay: Kinase panel (Eurofins); assay type: biochemical; conditions: n = 2; for inhibition at 1 µM: at 1 μmol/L; for IC50: read-out: IC50 kinase inhibition
T4 construct: purchased Eurofins
Text: as §4

[9] = biological target: T5, ErbB4(h) (Homo sapiens, UniProt Q15303); assay: Kinase panel (Eurofins); assay type: biochemical; conditions: n = 2; for inhibition at 1 µM: at 1 μmol/L; for IC50: read-out: IC50 kinase inhibition
T5 construct: purchased Eurofins
Text: as §4

[10] = biological target: T6, ErbB2(h) (Homo sapiens, UniProt P04626); assay: Kinase panel (Eurofins); assay type: biochemical; conditions: n = 2; for inhibition at 1 µM: at 1 μmol/L; for IC50: read-out: IC50 kinase inhibition
T6 construct: purchased Eurofins
Text: as §4

[11] = biological target: T7, ALK(h) (Homo sapiens, UniProt Q9UM73); assay: Kinase panel (Eurofins); assay type: biochemical; conditions: n = 2; for inhibition at 1 µM: at 1 μmol/L; for IC50: read-out: IC50 kinase inhibition
T7 construct: purchased Eurofins
Text: as §4

[12] = biological target: T8, Fes(h) (Homo sapiens, UniProt P07332); assay: Kinase panel (Eurofins); assay type: biochemical; conditions: n = 2; for inhibition at 1 µM: at 1 μmol/L; for IC50: read-out: IC50 kinase inhibition
T8 construct: purchased Eurofins
Text: as §4

[13] = biological target: T9, BRK(h) (Homo sapiens, UniProt Q13882); assay: Kinase panel (Eurofins); assay type: biochemical; conditions: n = 2; for inhibition at 1 µM: at 1 μmol/L; for IC50: read-out: IC50 kinase inhibition
T9 construct: purchased Eurofins
Text: as §4

[14] = biological target: T10, TSSK1(h) (Homo sapiens, UniProt Q9BXA7); assay: Kinase panel (Eurofins); assay type: biochemical; conditions: n = 2; for inhibition at 1 µM: at 1 μmol/L; for IC50: read-out: IC50 kinase inhibition
T10 construct: purchased Eurofins
T10 sequence (Q9BXA7 1-367): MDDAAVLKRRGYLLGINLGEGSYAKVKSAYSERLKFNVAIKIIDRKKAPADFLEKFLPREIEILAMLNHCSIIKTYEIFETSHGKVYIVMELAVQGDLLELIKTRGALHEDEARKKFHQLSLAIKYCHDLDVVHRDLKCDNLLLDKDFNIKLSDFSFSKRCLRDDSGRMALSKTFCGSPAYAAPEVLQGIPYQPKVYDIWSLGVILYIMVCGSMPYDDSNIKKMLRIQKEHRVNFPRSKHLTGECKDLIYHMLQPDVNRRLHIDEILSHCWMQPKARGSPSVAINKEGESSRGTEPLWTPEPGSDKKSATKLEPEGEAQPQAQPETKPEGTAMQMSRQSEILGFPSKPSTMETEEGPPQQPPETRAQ
Text: as §4

[15] = biological target: T11, Flt4(h) (Homo sapiens, UniProt P35916); assay: Kinase panel (Eurofins); assay type: biochemical; conditions: n = 2; for inhibition at 1 µM: at 1 μmol/L; for IC50: read-out: IC50 kinase inhibition
T11 construct: purchased Eurofins
Text: as §4

[16] = biological target: T12, Blk(h) (Homo sapiens, UniProt P51451); assay: Kinase panel (Eurofins); assay type: biochemical; conditions: n = 2; for inhibition at 1 µM: at 1 μmol/L; for IC50: read-out: IC50 kinase inhibition
T12 construct: purchased Eurofins
Text: as §4

[17] = test system: EGFR phosphorylation (pY1068) in NCI-H1975 cells; assay: Phosphorylation of EGFR assay, time course; assay type: cell-based, human; conditions: 0.1 μmol/L, 1-10 h
Protocol: Cells (NCI-H1975/PC-9/[…]) were seeded into a 384-well plate (10,000 cells/well), grown for 24 h, and then treated with different test compounds (0.1 μmol/L) for 1, 2, 4, 6, 8 and 10 h. A431 cells were stimulated with 100 ng/ml EGF after incubation for 10 min. Cells were washed with ice-cold HBSS before extraction with 25 μl cell lysis buffer. Phosphorylation of EGFR was measured using a sandwich ELISA assay with phospho-specific EGFR (pY1068) antibodies [AlphaLISA SureFire p-EGF Receptor (Tyr1068) Assay Kit, PerkinElmer].

[18] = Metabolite profiling in liver microsomes; assay type: in vitro ADME; conditions: incubation 60 min at 37°C; mouse, rat, dog, monkey and human liver microsomes
Protocol: Metabolite profiling was conducted in mouse, rat, dog, monkey, and human liver microsomes in vitro as well as in rat plasma, feces, and urine samples in vivo (From other experiments). […] All samples were analyzed by the LC/MS/MS (AB Sciex, API 5500 Qtrap) system. The structures of major metabolites were elucidated based on EPI spectra and further verified using authentic standards. The main metabolite Imp3 was quantified in multiple reaction monitoring mode in rat, dog and human clinical samples.

T9 sequence (Q13882 whole entry): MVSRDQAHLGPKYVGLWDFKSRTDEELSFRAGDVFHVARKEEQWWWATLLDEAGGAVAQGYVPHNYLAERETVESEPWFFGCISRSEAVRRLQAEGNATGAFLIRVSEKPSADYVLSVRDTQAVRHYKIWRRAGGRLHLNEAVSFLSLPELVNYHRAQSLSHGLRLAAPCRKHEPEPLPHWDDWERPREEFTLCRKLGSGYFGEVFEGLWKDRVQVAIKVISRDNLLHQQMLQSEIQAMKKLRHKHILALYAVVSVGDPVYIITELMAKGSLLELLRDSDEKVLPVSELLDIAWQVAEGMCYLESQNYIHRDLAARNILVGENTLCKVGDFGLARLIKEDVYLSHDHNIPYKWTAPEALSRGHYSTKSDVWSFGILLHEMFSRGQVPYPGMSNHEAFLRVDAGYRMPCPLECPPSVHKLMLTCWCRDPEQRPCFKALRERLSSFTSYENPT
T3 sequence (P16591 whole entry): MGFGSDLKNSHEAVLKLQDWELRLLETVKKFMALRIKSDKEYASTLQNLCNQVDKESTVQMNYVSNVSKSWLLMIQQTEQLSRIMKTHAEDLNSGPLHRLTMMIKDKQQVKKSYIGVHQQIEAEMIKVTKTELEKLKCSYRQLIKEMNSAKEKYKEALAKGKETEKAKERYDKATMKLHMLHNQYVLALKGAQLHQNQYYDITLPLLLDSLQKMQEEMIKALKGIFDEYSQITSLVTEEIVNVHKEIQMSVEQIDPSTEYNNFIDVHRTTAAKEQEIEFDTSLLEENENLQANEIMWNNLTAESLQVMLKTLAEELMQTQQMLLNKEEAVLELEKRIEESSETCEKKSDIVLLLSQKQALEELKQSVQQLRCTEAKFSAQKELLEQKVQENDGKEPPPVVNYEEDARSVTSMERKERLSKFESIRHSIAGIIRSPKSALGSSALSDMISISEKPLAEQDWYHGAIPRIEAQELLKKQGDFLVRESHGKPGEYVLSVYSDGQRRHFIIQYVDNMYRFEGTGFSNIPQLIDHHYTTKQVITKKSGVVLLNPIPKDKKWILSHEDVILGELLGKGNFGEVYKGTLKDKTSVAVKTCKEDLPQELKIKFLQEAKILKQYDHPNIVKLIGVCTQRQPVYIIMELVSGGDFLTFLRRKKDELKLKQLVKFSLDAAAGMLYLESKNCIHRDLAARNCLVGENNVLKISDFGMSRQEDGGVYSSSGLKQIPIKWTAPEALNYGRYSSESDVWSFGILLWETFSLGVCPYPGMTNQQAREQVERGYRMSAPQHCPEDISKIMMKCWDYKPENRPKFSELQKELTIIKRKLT
T12 sequence (P51451 whole entry): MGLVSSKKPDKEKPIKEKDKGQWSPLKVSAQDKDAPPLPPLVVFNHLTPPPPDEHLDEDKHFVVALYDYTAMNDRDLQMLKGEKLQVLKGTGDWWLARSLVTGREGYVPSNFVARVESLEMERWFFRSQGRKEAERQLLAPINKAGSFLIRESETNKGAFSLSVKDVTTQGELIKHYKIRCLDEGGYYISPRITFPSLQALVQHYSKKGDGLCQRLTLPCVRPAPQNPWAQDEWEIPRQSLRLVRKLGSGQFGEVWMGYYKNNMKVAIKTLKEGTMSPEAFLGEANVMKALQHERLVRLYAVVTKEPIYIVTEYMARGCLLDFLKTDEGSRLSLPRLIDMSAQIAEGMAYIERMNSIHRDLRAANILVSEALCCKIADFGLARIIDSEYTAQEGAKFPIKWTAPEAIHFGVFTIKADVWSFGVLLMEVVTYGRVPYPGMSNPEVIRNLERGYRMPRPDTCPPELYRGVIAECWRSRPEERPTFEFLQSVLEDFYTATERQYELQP
T6 sequence (P04626 23-1255): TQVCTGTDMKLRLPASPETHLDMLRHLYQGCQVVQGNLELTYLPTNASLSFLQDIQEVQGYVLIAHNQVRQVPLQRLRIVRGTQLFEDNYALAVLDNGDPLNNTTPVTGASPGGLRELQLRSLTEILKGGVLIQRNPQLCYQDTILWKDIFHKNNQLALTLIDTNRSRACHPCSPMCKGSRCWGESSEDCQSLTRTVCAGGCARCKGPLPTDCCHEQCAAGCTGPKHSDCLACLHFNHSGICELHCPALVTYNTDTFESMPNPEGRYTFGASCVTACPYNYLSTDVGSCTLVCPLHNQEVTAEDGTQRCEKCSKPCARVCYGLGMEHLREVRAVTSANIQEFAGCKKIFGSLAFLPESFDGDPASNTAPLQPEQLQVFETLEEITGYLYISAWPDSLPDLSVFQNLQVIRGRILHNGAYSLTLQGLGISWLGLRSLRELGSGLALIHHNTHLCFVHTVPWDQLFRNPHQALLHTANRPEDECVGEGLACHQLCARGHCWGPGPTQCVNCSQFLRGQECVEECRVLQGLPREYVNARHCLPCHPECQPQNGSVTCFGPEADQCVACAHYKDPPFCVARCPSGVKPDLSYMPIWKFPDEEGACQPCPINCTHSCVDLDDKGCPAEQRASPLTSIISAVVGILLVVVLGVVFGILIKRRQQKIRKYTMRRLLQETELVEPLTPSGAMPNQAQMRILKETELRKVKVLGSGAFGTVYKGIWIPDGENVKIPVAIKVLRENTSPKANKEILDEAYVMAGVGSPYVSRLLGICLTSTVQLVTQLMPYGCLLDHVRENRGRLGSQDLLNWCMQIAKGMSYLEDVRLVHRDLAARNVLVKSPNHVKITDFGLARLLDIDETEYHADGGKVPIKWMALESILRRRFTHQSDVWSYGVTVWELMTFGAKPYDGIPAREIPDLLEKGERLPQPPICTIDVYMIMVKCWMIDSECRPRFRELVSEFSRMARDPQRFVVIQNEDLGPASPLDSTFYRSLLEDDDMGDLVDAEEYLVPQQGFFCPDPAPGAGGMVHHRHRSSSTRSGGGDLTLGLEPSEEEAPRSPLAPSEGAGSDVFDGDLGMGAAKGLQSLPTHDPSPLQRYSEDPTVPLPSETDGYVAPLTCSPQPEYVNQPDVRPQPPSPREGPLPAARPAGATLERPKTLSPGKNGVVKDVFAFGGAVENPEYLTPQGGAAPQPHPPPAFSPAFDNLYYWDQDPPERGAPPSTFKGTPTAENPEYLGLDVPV
T7 sequence (Q9UM73 19-1620): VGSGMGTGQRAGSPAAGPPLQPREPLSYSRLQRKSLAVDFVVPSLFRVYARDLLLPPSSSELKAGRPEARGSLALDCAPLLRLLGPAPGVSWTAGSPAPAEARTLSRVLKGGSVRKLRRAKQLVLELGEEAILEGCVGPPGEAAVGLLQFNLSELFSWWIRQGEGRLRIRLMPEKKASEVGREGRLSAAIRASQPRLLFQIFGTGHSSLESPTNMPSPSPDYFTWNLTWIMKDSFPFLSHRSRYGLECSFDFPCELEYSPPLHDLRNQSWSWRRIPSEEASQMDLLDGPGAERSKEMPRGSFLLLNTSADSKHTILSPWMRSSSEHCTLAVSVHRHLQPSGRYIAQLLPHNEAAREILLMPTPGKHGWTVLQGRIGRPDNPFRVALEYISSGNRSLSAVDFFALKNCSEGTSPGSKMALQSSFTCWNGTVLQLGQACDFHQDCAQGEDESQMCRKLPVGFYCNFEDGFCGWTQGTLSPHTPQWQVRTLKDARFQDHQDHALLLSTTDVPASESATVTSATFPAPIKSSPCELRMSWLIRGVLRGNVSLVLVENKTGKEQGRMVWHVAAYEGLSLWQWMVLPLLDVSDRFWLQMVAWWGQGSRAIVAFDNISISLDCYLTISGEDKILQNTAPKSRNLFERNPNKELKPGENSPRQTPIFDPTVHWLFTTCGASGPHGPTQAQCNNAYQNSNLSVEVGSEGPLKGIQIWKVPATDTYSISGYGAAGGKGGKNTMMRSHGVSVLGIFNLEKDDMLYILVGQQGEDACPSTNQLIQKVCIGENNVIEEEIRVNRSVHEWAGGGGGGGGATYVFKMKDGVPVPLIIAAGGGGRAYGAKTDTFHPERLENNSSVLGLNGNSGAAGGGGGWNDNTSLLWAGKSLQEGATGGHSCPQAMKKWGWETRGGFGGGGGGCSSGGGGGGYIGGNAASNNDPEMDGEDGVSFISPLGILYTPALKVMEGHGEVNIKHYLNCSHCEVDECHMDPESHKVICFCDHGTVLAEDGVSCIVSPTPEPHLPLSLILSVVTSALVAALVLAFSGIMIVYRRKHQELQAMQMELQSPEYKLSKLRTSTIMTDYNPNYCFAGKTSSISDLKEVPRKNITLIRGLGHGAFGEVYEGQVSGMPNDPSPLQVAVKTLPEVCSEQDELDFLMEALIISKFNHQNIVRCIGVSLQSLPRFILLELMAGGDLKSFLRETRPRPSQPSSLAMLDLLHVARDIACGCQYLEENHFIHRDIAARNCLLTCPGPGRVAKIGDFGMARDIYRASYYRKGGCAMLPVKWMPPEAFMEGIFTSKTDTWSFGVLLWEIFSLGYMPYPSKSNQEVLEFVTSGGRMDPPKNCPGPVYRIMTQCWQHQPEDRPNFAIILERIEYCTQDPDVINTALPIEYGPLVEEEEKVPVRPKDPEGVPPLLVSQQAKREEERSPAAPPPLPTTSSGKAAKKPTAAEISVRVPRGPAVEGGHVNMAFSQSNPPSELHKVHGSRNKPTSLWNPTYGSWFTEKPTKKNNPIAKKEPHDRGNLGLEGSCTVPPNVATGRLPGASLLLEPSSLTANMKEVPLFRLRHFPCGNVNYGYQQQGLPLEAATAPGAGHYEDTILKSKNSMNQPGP

Row | Compound | IC50 [1] | IC50 [2] | IC50 [3] | IC50 [4] | inhibition at 1 µM [5] | IC50 [5] | inhibition at 1 µM [6] | IC50 [6] | inhibition at 1 µM [7] | IC50 [7] | inhibition at 1 µM [8] | IC50 [8] | inhibition at 1 µM [9] | IC50 [9] | inhibition at 1 µM [10] | IC50 [10] | inhibition at 1 µM [11] | IC50 [11] | inhibition at 1 µM [12] | IC50 [12] | also measured
1 | C=CC(=O)Nc1cc(Nc2nccc(-c3c4n(c5ccccc35)CCCC4)n2)c(OC)cc1N(C)CCNC [Imp3] | 17.1 ± 0.55 nM | 15 ± 0.65 nM | 704 ± 92.5 nM | 6.56 ± 1.43 nM | 93% | 120 nM | 64% | 736 nM | 80% | 452 nM | 90% | 124 nM | 92% | 84 nM | 83% | 197 nM | 92% | 53 nM | 74% | 309 nM | inhibition at 1 µM [13]: 91%; IC50 [13]: 80 nM; inhibition at 1 µM [14]: 98%; IC50 [14]: 73 nM; inhibition at 1 µM [15]: 96%; IC50 [15]: 104 nM; inhibition at 1 µM [16]: 85%; IC50 [16]: 229 nM; inhibitory effect on EGFR phosphorylation [17]: stronger inhibitory effects on EGFR phosphorylation compared to osimertinib
2 | C=CC(=O)Nc1cc(Nc2nccc(-c3c4n(c5ccccc35)CCCC4)n2)c(OC)cc1N(C)CCN(C)C [SH-1028] | 9.39 ± 0.88 nM | 7.63 ± 0.18 nM | 779 ± 135 nM | 3.93 ± 1.12 nM | 89% | 82 nM | 39% | 644 nM | 45% | 542 nM | 81% | 86 nM | 90% | 46 nM | 72% | 55 nM | 85% | 79 nM | 46% | 557 nM | fold more sensitive than the inhibition of wild-type EGFR in A431 cells ([1]; H3255 vs A431, proliferation IC50): ~83 fold; fold more sensitive than the inhibition of wild-type EGFR in A431 cells ([2]; PC-9 vs A431, proliferation IC50): ~102 fold; number of metabolites detected [18]: 27; inhibition at 1 µM [13]: 85%; IC50 [13]: 62 nM; inhibition at 1 µM [14]: 84%; IC50 [14]: 104 nM; inhibition at 1 µM [15]: 92%; IC50 [15]: 62 nM; inhibition at 1 µM [16]: 83%; IC50 [16]: 143 nM; inhibitory effect on EGFR phosphorylation [17]: stronger inhibitory effects on EGFR phosphorylation compared to osimertinib
